Values quoted from earlier work in publication PMC10377753, “Pharmacokinetic and pharmacodynamic properties of polymyxin B in Escherichia coli and Klebsiella pneumoniae murine infection models” (Journal of Antimicrobial Chemotherapy, 2023).

System: plasma proteins
Conditions: mouse, spiked pooled plasma, ultracentrifugation; cited from earlier work
Excerpt: Protein binding of polymyxin B is known to be high. However, a difference was found between the current study (unbound fraction 20%) compared with previous studies (8.6% for polymyxin B,[8] 8.4% for colistin[5]), which affects the PTA. In the present study, ultrafiltration was used for determining the unbound fraction, whilst ultracentrifugation was used in the other studies. With the ultrafiltration method, correction for the NSB to the ultrafiltration membranes was needed. In addition, differences in mouse plasma used for determination of polymyxin B protein binding may (partly) explain the ...

colistin
Unbound fraction: 8.4%
